Consider two molecules from publication PMC6789174 (Drug Design, Development and Therapy, 2019).

The target in one test is α-glucosidase (Saccharomyces cerevisiae, UniProt P53341). Kind of test: Alpha glucosidase inhibition. The class given is biochemical.
The target of a further test is T1, porcine α-amylase (Sus scrofa, UniProt P00690).
T1 sequence (P00690 16-511): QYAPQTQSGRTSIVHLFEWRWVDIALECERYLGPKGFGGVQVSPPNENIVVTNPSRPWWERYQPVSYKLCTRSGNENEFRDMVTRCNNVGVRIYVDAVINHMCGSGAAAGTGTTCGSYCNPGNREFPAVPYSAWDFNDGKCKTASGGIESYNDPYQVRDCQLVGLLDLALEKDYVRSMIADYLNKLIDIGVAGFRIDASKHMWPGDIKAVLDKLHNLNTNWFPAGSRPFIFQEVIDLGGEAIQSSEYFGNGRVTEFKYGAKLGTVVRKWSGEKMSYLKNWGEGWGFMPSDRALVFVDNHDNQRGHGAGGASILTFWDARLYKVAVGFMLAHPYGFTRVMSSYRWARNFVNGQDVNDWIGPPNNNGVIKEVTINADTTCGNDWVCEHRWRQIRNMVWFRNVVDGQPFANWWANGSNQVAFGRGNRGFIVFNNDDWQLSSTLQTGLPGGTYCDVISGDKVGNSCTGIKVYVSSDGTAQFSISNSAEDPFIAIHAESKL
Kind of test: biochemical.

Test [1] has as its system Agrobacterium tumefaction. Kind of test: Anti-bacterial activity, agar well diffusion. The format is cell-based.
For the next test, the target named is T2, glucose-6-phosphatase (Homo sapiens, UniProt P35575).
T2 sequence (P35575 1-357): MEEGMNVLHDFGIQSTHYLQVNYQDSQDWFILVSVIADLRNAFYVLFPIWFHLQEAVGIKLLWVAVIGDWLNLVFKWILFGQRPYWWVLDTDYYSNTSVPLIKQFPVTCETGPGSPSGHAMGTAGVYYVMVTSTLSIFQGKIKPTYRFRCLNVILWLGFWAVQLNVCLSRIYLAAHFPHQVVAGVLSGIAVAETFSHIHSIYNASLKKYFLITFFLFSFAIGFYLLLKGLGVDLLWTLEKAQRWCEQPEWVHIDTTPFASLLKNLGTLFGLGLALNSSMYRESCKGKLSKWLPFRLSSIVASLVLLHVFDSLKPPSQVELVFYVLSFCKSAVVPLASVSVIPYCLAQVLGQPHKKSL
Kind of test: Glucose-6-phosphatase activity. The class given is biochemical. The settings on record: 33°C, pH 6.7, control 72.0.

A further test concerns the target Butyrylcholinesterase (Homo sapiens, UniProt P06276). Kind of test: Anticholinesterase assay. The class given is biochemical.
A further test deals with Proteus vulgaris. Kind of test: Anti-bacterial activity, agar well diffusion. The class given is cell-based.
Another test has as its system Staphylococcus aureus. Kind of test: Anti-bacterial activity, agar well diffusion. The class given is cell-based.
The next test addresses Acetylcholinesterase (Homo sapiens, UniProt P22303). Kind of test: biochemical.
A short description of test [2]: ABTS free radical scavenging.
Test [3] can be described thus: DPPH free radical scavenging.
[4] abbreviates: read-out: %Inhibition (mean ± SEM), alpha amylase.
The mark [5] stands for this setting: read-out: ZI (Zone of inhibition), Agrobacterium tumefaction.
The mark [6] stands for this setting: read-out: %BChE Inhibition (mean ± SEM).
Setting [7] is: read-out: ZI (Zone of inhibition), Proteus vulgaris.
Where [8] appears, read: read-out: ZI (Zone of inhibition), Staphylococcus aureus.
[9] abbreviates: read-out: %AChE Inhibition (mean ± SEM).

Converted amounts (≈) assume the structure as drawn. Like-named read-outs stand apart in the source and are kept apart here.

Butyrylcholinesterase, sequence (P06276 29-602): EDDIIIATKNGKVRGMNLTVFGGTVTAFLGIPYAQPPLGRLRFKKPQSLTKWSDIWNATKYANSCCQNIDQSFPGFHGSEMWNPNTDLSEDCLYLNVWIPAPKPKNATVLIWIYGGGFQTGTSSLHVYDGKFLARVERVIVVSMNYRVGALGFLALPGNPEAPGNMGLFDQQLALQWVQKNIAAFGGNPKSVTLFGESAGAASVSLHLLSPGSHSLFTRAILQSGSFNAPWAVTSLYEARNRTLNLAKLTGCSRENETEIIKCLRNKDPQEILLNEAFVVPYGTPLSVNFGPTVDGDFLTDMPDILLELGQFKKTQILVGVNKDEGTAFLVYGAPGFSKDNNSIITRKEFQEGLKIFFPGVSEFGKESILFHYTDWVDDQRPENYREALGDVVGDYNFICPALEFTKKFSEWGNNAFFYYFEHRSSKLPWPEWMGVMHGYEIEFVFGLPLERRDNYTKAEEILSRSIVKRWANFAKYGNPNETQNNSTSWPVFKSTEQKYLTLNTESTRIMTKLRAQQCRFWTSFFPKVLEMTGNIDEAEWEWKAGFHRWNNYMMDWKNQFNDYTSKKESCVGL
Acetylcholinesterase, sequence (P22303 32-614, species assumed): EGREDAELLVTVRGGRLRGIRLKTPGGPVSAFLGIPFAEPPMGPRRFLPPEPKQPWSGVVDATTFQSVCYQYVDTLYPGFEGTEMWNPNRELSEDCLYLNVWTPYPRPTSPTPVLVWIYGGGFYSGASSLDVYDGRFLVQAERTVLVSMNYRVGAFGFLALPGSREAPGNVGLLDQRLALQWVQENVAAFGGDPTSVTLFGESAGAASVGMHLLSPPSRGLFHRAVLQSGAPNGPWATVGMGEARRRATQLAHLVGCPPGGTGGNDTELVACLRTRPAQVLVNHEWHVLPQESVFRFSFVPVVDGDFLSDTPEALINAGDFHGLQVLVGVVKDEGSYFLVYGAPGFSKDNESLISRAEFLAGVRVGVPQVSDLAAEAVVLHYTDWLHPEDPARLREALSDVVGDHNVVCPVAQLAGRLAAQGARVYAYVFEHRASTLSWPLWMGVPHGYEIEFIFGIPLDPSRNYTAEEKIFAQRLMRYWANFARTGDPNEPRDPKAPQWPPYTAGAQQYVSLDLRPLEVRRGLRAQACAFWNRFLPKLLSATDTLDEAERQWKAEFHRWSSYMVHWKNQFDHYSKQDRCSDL
α-glucosidase, sequence (P53341 whole entry): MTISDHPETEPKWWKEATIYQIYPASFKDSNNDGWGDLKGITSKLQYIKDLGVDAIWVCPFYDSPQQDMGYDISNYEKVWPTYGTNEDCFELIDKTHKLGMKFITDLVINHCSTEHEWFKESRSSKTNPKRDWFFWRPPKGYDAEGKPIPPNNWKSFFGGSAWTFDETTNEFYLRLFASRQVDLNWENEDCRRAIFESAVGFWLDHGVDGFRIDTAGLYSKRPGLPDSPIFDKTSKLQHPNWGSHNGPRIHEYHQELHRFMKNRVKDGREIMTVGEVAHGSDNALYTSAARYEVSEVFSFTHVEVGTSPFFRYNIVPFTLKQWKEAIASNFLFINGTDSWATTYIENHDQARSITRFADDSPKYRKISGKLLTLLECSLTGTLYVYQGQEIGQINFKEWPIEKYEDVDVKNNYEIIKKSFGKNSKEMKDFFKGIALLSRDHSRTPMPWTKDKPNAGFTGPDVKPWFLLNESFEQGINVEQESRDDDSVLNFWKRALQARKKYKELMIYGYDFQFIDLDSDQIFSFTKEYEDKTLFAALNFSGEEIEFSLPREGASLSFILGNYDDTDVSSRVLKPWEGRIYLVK

On to `C[C@H]1O[C@H](O[C@H]2[C@H](O)[C@@H](O)[C@@H](O[C@H]3[C@H](O)[C@@H](O)C(O)O[C@@H]3CO)O[C@@H]2CO)[C@H](O)[C@@H](O)[C@@H]1N[C@H]1C=C(CO)[C@@H](O)[C@H](O)[C@H]1O` (some centres unmarked) [Acarbose], for which the “%Inhibition (mean ± SEM), alpha glucosidase” value on α-glucosidase is recorded as 94.02 ± 1.23%; at α-glucosidase (concentration 125 μg/mL) it was 59.83 ± 2.04%; on α-glucosidase (concentration 250 μg/mL) it was 68.14 ± 2.18%; on α-glucosidase (concentration 500 μg/mL), 79.11 ± 2.12%. Besides, at porcine α-amylase (setting [4]), the inhibition at 125 µg/mL is 58.1 ± 1.34%. The inhibition at 500 µg/mL at porcine α-amylase (setting [4]) amounted to 73 ± 1.34%. In addition, the inhibition at 1000 µg/mL on porcine α-amylase (setting [4]) is 88.1 ± 1.13%.

For `S=C(Nc1ccccc1)NC(c1ccccn1)C(Cc1ccccc1)Cc1ccccc1` (centres unmarked) [Compound III, 1-(2-benzyl-3-phenyl-1-(pyridine-2-yl)propyl)-3-phenylthiourea], the MIC in test [1] (read-out: MIC, Agrobacterium tumefaction) is 11.6 µg/mL (≈ 26.6 µM); in the test with Proteus vulgaris (read-out: MIC, Proteus vulgaris), 15 µg/mL (≈ 34.2 µM); in the test on Staphylococcus aureus (read-out: MIC, Staphylococcus aureus), 14.9 µg/mL (≈ 34.1 µM). Further, the values for the zone of inhibition at 10 µg/mL (in [1] (setting [5]); with Proteus vulgaris (setting [7]); in the test on Staphylococcus aureus (setting [8])) were 15 mm, 12 mm and 15 mm, respectively. Also, the zone of inhibition at 20 µg/mL was found to be 20 mm in test [1] (setting [5]), 16 mm with Proteus vulgaris (setting [7]) and 16 mm in the test on Staphylococcus aureus (setting [8]). Further, the zone of inhibition at 30 µg/mL in [1] (setting [5]) was found to be 26 mm; with Proteus vulgaris (setting [7]) it was 22 mm; with Staphylococcus aureus (setting [8]), 19 mm. Further, the “Total Activity of glucose-6-phosphatase” value on glucose-6-phosphatase (concentration 125 µg/mL) was 32.04 mg of P released per hour; at glucose-6-phosphatase (concentration 250 µg/mL) it was 28.35 mg of P released per hour; at glucose-6-phosphatase (concentration 500 µg/mL), 27.10 mg of P released per hour. Moreover, the IC50 against Butyrylcholinesterase was 183 µM; on Acetylcholinesterase it was 144 µM; against porcine α-amylase it was 263 µM. Moreover, the inhibition at 125 µg/mL was determined as 58.3 ± 1.06% at Butyrylcholinesterase (setting [6]); 62.2 ± 1.12% on Acetylcholinesterase (setting [9]); 50.1 ± 2.11% on porcine α-amylase (read-out: %Inhibition (mean ± SEM), alpha amylase, concentration 125 µg/mL). Also, the inhibition at 250 µg/mL was determined as 61.8 ± 1.54% at Butyrylcholinesterase (setting [6]); 66.5 ± 2.08% at Acetylcholinesterase (setting [9]); 62.5 ± 1.24% on porcine α-amylase (read-out: %Inhibition (mean ± SEM), alpha amylase, concentration 250 µg/mL). Besides, the results for the inhibition at 500 µg/mL on Butyrylcholinesterase (setting [6]) and on Acetylcholinesterase (setting [9]) were 63.8 ± 1.53% and 75.7 ± 1.15%, respectively. Besides, the inhibition at 1000 µg/mL on Butyrylcholinesterase (setting [6]) came out at 68.5 ± 1.07%; at Acetylcholinesterase (setting [9]) it was 84.3 ± 1.12%; at porcine α-amylase (read-out: %Inhibition (mean ± SEM), alpha amylase, concentration 1000 µg/mL), 65.8 ± 1.13%. Besides, the “%Inhibition (mean ± SEM), alpha amylase” value at porcine α-amylase (concentration 250 μg/mL) is 57.91 ± 0.43%. In addition, the “ABTS IC50” value in test [2] stood at 80 µg/mL. Further, the “ABTS % I (mean ± S.E.M)” value is reported as 64.77 ±0.087% in test [2] (concentration 125 μg/mL), 66.25 ±0.123% in [2] (concentration 250 μg/mL), 68.27 ± 0.532% in [2] (concentration 500 μg/mL) and 69.11 ± 0.234% in test [2] (concentration 1000 μg/mL). Further, the “DPPH IC50” value in [3] is 79 µg/mL. Moreover, the “DPPH % I (mean ± S.E.M)” value worked out at 61.14±0.177% in test [3] (concentration 125 μg/mL), 64.74 ± 0.267% in [3] (concentration 250 μg/mL), 66.07 ± 0.283% in [3] (concentration 500 μg/mL) and 67.45 ± 0.095% in test [3] (concentration 1000 μg/mL).
